Measurements published in patent publication US10968178B2, “IP6K inhibitors” (TAKEDA PHARMACEUTICAL COMPANY LIMITED, priority 2017, dated 2021).

Experiments:
Assay type in all cases: biochemical
[1] = molecular target: T1, human IP6K1 (Homo sapiens, UniProt Q92551); experiment: IP6K enzyme inhibitory assay (ADP-Glo Kinase Assay), human IP6K1; conditions: compound concentration 0.1 μM; read-out: ADP-Glo method inhibitory rate (%) human IP6K1
T1 construct: human IP6K1 (1-441) gene; GST; made in house; host or cells: Sf-9 insect cells
How it was run: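 Inhibition of human IP6K1 was determined with Promega's ADP-Glo Kinase Assay in 384 well plates. Test compound diluted in assay buffer (20 mM HEPES (pH 7.5), 6 mM MgCl2, 0.01% Tween-20, 1 mM DTT) was added at 2 μL, then 2 μL of enzyme started the reaction for 60 min at room temperature. Next came 3 μL ADP-Glo solution for 30 min and 6 μL Kinase-Detection solution for 60 min. Luminescence was read on an Envision plate reader.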

[2] = molecular target: T2, human IP6K3 (Homo sapiens, UniProt Q96PC2); experiment: IP6K enzyme inhibitory assay (ADP-Glo Kinase Assay), human IP6K3; conditions: compound concentration 0.1 μM; read-out: ADP-Glo method inhibitory rate (%) human IP6K3
T2 construct: human IP6K3 (1-410) gene; made in house; host or cells: BL21 (DE3) Escherichia coli
T2 sequence (Q96PC2 1-410): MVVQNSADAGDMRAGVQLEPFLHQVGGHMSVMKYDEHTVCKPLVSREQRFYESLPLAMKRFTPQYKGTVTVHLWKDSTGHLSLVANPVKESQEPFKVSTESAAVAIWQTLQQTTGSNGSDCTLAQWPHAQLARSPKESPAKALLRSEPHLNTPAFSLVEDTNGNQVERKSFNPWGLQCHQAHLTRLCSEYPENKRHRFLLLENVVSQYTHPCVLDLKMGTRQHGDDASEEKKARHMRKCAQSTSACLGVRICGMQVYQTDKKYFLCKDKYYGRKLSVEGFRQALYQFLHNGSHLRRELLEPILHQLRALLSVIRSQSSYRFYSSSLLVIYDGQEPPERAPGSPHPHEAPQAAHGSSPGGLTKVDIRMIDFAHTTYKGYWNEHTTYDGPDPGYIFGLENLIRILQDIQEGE
How it was run: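 Recombinant human IP6K (IP6K3 residues 1-410, E. coli, Ni-NTA purified) incubated with compound in 20 mM HEPES pH 7.5, 6 mM MgCl2, 0.01% Tween-20, 1 mM DTT for 60 min at room temperature. ADP formed read as luminescence by ADP-Glo.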

[3] = molecular target: T3, human IP6K2 (Homo sapiens, UniProt Q9UHH9); experiment: IP6K enzyme inhibitory assay (ADP-Glo Kinase Assay), human IP6K2; conditions: compound concentration 0.1 μM; read-out: ADP-Glo method inhibitory rate (%) human IP6K2
T3 construct: human IP6K2 (1-426) gene; GST; made in house; host or cells: Sf-9 insect cells
T3 sequence (Q9UHH9 1-426): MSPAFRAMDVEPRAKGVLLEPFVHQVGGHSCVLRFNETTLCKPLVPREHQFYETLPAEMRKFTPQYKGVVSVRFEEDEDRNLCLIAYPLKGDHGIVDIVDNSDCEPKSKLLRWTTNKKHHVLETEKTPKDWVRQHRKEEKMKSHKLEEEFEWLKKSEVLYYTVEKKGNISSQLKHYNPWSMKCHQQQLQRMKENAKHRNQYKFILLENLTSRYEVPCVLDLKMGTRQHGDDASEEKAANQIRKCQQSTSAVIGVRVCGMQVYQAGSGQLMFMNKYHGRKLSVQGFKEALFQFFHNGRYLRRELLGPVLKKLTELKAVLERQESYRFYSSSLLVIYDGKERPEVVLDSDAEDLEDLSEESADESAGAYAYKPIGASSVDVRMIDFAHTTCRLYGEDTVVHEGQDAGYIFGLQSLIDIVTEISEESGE
How it was run: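 The inhibitory activity against human IP6K2 was measured with Promega's ADP-Glo Kinase Assay in 384 well plates. Test compound, diluted in assay buffer (20 mM HEPES (pH 7.5), 6 mM MgCl2, 0.01% Tween-20, 1 mM DTT), was added at 2 μL. Adding 2 μL of diluted enzyme started the reaction, which ran for 60 min at room temperature. Next, 3 μL ADP-Glo solution (30 min) and 6 μL Kinase-Detection solution (60 min) were added, and luminescence was read on an Envision plate reader.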

T1 sequence (Q92551 whole entry): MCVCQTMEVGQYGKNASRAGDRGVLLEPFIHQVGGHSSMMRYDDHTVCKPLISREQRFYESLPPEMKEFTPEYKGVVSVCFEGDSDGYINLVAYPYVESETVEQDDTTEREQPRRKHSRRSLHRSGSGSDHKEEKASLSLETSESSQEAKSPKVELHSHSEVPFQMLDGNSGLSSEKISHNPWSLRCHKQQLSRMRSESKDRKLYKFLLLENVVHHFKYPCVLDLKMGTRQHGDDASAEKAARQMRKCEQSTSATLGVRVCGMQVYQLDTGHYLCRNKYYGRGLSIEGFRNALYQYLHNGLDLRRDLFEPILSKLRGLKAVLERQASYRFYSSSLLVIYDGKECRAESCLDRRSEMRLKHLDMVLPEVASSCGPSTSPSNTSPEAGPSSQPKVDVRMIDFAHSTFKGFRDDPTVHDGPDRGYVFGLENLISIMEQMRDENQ

Row | Structure (SMILES) | inhibition at 0.1 µM [1] [%] | inhibition at 0.1 µM [2] [%] | inhibition at 0.1 µM [3] [%]
1 | O=C(O)c1ccc2c(c1)[C@]1(CC[C@@H](Oc3c(Cl)cc(Cl)cc3Cl)CC1)C(=O)N2 [Example 3, (1r,4r)-2′-oxo-4-(2,4,6-trichlorophenoxy)-1′,2′-dihydrospiro[cyclohexane-1,3′-indole]-5′-carboxylic acid] | 101 | 85 | 101
2 | Cc1cccnc1O[C@H]1CC[C@@]2(CC1)C(=O)Nc1ccc(C(=O)O)cc12 [Example 21, (1r,4r)-4-((3-methylpyridin-2-yl)oxy)-2′-oxo-1′,2′-dihydrospiro[cyclohexane-1,3′-indole]-5′-carboxylic acid] | 79 | 96 | 91
3 | O=C(O)c1ccc2c(c1)[C@]1(CC[C@@H](Oc3cc(F)ccc3F)CC1)C(=O)N2 [Example 56, (1r,4r)-4-(2,5-difluorophenoxy)-2′-oxo-1′,2′-dihydrospiro[cyclohexane-1,3′-indole]-5′-carboxylic acid] | 97 | 99 | 92
4 | N#Cc1cccc(O[C@H]2CC[C@@]3(CC2)C(=O)Nc2ccc(C(=O)O)cc23)c1F [Example 60, (1r,4r)-4-(3-cyano-2-fluorophenoxy)-2′-oxo-1′,2′-dihydrospiro[cyclohexane-1,3′-indole]-5′-carboxylic acid] | 87 | 98 | 90
5 | O=C(O)c1ccc2c(c1)[C@]1(CC[C@@H](Oc3ncc(C(F)(F)F)cc3Cl)CC1)C(=O)N2 [Example 29, (1r,4r)-4-((3-chloro-5-(trifluoromethyl)pyridin-2-yl)oxy)-2′-oxo-1′,2′-dihydrospiro[cyclohexane-1,3′-indole]-5′-carboxylic acid] | 99 | 99 | 96
6 | Cc1ccc(O[C@H]2CC[C@@]3(CC2)C(=O)Nc2ccc(C(=O)O)cc23)c(F)c1 [Example 54, (1r,4r)-4-(2-fluoro-4-methylphenoxy)-2′-oxo-1′,2′-dihydrospiro[cyclohexane-1,3′-indole]-5′-carboxylic acid] | 99 | 101 | 100
7 | O=C(O)c1ccc2c(c1)[C@]1(CC[C@H](Oc3cc(F)cnc3F)CC1)C(=O)N2 [Example 5, (1s,4s)-4-((2,5-difluoropyridin-3-yl)oxy)-2′-oxo-1′,2′-dihydrospiro[cyclohexane-1,3′-indole]-5′-carboxylic acid] | 86 | 94 | 89
8 | Cc1ccc(O[C@H]2CC[C@@]3(CC2)C(=O)Nc2ccc(C(=O)O)cc23)c(C)n1 [Example 35, (1r,4r)-4-((2,6-dimethylpyridin-3-yl)oxy)-2′-oxo-1′,2′-dihydrospiro[cyclohexane-1,3′-indole]-5′-carboxylic acid] | 82 | 98 | 96
9 | N#Cc1cc(O[C@H]2CC[C@@]3(CC2)C(=O)Nc2ccc(C(=O)O)cc23)ccc1Cl [Example 71, (1r,4r)-4-(4-chloro-3-cyanophenoxy)-2′-oxo-1′,2′-dihydrospiro[cyclohexane-1,3′-indole]-5′-carboxylic acid] | 88 | 95 | 90
10 | Cc1cc(F)ccc1O[C@H]1CC[C@@]2(CC1)C(=O)Nc1ccc(C(=O)O)cc12 [Example 50, (1r,4r)-4-(4-fluoro-2-methylphenoxy)-2′-oxo-1′,2′-dihydrospiro[cyclohexane-1,3′-indole]-5′-carboxylic acid] | 101 | 96 | 100
11 | O=C(O)c1ccc2c(c1)[C@]1(CC[C@@H](Oc3cc(F)cc(F)c3)CC1)C(=O)N2 [Example 58, (1r,4r)-4-(3,5-difluorophenoxy)-2′-oxo-1′,2′-dihydrospiro[cyclohexane-1,3′-indole]-5′-carboxylic acid] | 72 | 90 | 83
12 | Cc1cc(C)nc(O[C@H]2CC[C@@]3(CC2)C(=O)Nc2ccc(C(=O)O)cc23)n1 [Example 38, (1r,4r)-4-((4,6-dimethylpyrimidin-2-yl)oxy)-2′-oxo-1′,2′-dihydrospiro[cyclohexane-1,3′-indole]-5′-carboxylic acid] | 55 | 86 | 47

Other lines, results leading:

Row | inhibition at 0.1 µM [1] [%] | inhibition at 0.1 µM [2] [%] | inhibition at 0.1 µM [3] [%] | Structure (SMILES)
13 | 104 | 98 | 100 | O=C(O)c1ccc2c(n1)[C@]1(CC[C@H](Oc3ccc(Cl)cc3Cl)CC1)C(=O)N2 [Example 101, (1s,4s)-4-(2,4-dichlorophenoxy)-2′-oxo-1′,2′-dihydrospiro[cyclohexane-1,3′-pyrrolo[3,2-b]pyridine]-5′-carboxylic acid]
14 | 79 | 85 | 79 | O=C(O)c1ccc2c(c1)[C@]1(CC[C@@H](Oc3ccccc3)CC1)C(=O)N2 [Example 113, (1r,4r)-2′-oxo-4-phenoxy-1′,2′-dihydrospiro[cyclohexane-1,3′-indole]-5′-carboxylic acid]
15 | 97 | 102 | 100 | COc1cc(Cl)ccc1O[C@H]1CC[C@]2(CC1)C(=O)Nc1ccc(C(=O)O)cc12 [Example 83, (1s,4s)-4-(4-chloro-2-methoxyphenoxy)-2′-oxo-1′,2′-dihydrospiro[cyclohexane-1,3′-indole]-5′-carboxylic acid]
16 | 90 | 97 | 90 | Cc1cc(C(F)(F)F)cnc1O[C@H]1CC[C@@]2(CC1)C(=O)Nc1ccc(C(=O)O)nc12 [Example 112, (1r,4r)-4-((3-methyl-5-(trifluoromethyl)pyridin-2-yl)oxy)-2′-oxo-1′,2′-dihydrospiro[cyclohexane-1,3′-pyrrolo[3,2-b]pyridine]-5′-carboxylic acid]
17 | 88 | 96 | 91 | O=C(O)c1ccc2c(n1)[C@]1(CC[C@@H](Oc3ccc(Cl)cc3C(F)(F)F)CC1)C(=O)N2 [Example 95, (1r,4r)-4-(4-chloro-2-(trifluoromethyl)phenoxy)-2′-oxo-1′,2′-dihydrospiro[cyclohexane-1,3′-pyrrolo[3,2-b]pyridine]-5′-carboxylic acid]
18 | 107 | 102 | 102 | O=C(O)c1ccc2c(c1)[C@]1(CC[C@H](Oc3ncc(Cl)cc3F)CC1)C(=O)N2 [Example 87, (1s,4s)-4-((5-chloro-3-fluoropyridin-2-yl)oxy)-2′-oxo-1′,2′-dihydrospiro[cyclohexane-1,3′-indole]-5′-carboxylic acid]
19 | 99 | 97 | 97 | N#Cc1ccc(O[C@H]2CC[C@@]3(CC2)C(=O)Nc2ccc(C(=O)O)cc23)c(Cl)c1 [Example 72, (1r,4r)-4-(2-chloro-4-cyanophenoxy)-2′-oxo-1′,2′-dihydrospiro[cyclohexane-1,3′-indole]-5′-carboxylic acid]
20 | 89 | 89 | 94 | O=C(O)c1ccc2c(c1)[C@]1(CC[C@@H](Oc3cccc(C(F)(F)F)c3)CC1)C(=O)N2 [Example 75, (1r,4r)-2′-oxo-4-(3-(trifluoromethyl)phenoxy)-1′,2′-dihydrospiro[cyclohexane-1,3′-indole]-5′-carboxylic acid]
